Measured values reported in patent publication US20230114728A1 (Venatorx Pharmaceuticals, Inc., priority 2019, published 2023).
In brackets after ≈: the same amount, converted by molar mass.

Assays:
Assay in all cases: Broth microdilution MIC in iron-depleted CAMHB (IDM)
Type in all cases: cell-based
[1] = test system: A. baumannii ATCC 17978; details: Acinetobacter baumannii, ATCC17978, read-out: Minimum Inhibitory Concentration, ATCC 17978
Method in brief: (§1)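 IDM = CAMHB stripped with Chelex 100 resin 2 h, supplemented CaCl2 82.5 mg/L, MgCl2 94.1 mg/L, ZnSO4 10 μM, pH 7.3. 2-fold compound dilutions; 2-8×10^5 CFU/mL; 37° C; Acinetobacter 20-24 h, Pseudomonas 16-20 h. Visual MIC.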

[2] = test system: A. baumannii CDC-0036 OXA-65, and OXA-24; details: Acinetobacter baumannii, read-out: Minimum Inhibitory Concentration, CDC-0036
Method in brief: as §1

[3] = test system: A. baumannii CDC-0083 producing NDM-1, PER-7, OXA-23, and OXA-69; details: Acinetobacter baumannii, read-out: Minimum Inhibitory Concentration, CDC-0083
Method in brief: as §1

[4] = test system: P. aeruginosa ATCC 27853; details: Pseudomonas aeruginosa, ATCC27853, read-out: Minimum Inhibitory Concentration, P. aeruginosa ATCC 27853
Method in brief: as §1

[5] = test system: P. aeruginosa ATCC 35151; details: Pseudomonas aeruginosa, ATCC35151; iron-depleted MHB (IDM); hyper-permeable strain; read-out: Minimum Inhibitory Concentration, P. aeruginosa ATCC 35151
Method in brief: as §1

[6] = test system: P. aeruginosa CDC-0095 producing OXA-50, and PAO; details: Pseudomonas aeruginosa, read-out: Minimum Inhibitory Concentration, P. aeruginosa CDC-0095
Method in brief: as §1

Row | Structure (SMILES) | MIC [1] | MIC [2] | MIC [3] | MIC [4] | MIC [5] | MIC [6]
1 | C[C@@H](O)[C@@H](NC(=O)N1CCN(CCNC(=O)c2c(F)cc(O)c(O)c2Cl)C(=O)C1=O)C(=O)N[C@H]1Cc2ccc(F)c(C(=O)O)c2OB1O [Example 102, (R)-3-((2R,3R)-2-(4-(2-(2-chloro-6-fluoro-3,4-dihydroxybenzamido)ethyl)-2,3-dioxopiperazine-1-carboxamido)-3-hydroxybutanamido)-7-fluoro-2-hydroxy-3,4-dihydro-2H-benzo[e][1,2]oxaborinine-8-carboxylic acid] | 2 to 4 µg/mL (≈ 2.87 to 5.73 µM) | 32 to 64 µg/mL (≈ 45.9 to 91.7 µM) | 32 to 64 µg/mL (≈ 45.9 to 91.7 µM) | 2 to 4 µg/mL (≈ 2.87 to 5.73 µM) | 0.5 to 1 µg/mL (≈ 0.717 to 1.43 µM) | 2 to 4 µg/mL (≈ 2.87 to 5.73 µM)
2 | NS(=O)(=O)c1cc(O)cc(C(NC(=O)N2CCN(Cc3c(F)cc(O)c(O)c3Cl)C(=O)C2=O)C(=O)N[C@H]2Cc3cccc(C(=O)O)c3OB2O)c1 (stereo partly drawn) [Example 132, (3R)-3-(2-(4-(2-chloro-6-fluoro-3,4-dihydroxybenzyl)-2,3-dioxopiperazine-1-carboxamido)-2-(3-hydroxy-5-sulfamoylphenyl)acetamido)-2-hydroxy-3,4-dihydro-2H-benzo[e][1,2]oxaborinine-8-carboxylic acid] | > 128 µg/mL | > 128 µg/mL | > 128 µg/mL | 8 to 16 µg/mL (≈ 10.7 to 21.3 µM) | 0.5 to 1 µg/mL (≈ 0.667 to 1.33 µM) | > 128 µg/mL
3 | NCCCN1CCN(C(=O)N[C@@H](C(=O)N[C@H]2Cc3ccc(F)c(C(=O)O)c3OB2O)c2cc(F)c(O)c(O)c2Cl)C(=O)C1=O (single isomer, unassigned) [Example 180] | 0.5 to 1 µg/mL (≈ 0.782 to 1.56 µM) | 8 to 16 µg/mL (≈ 12.5 to 25 µM) | > 128 µg/mL | 0.5 to 1 µg/mL (≈ 0.782 to 1.56 µM) | 0.25 µg/mL (≈ 0.391 µM) | 2 to 4 µg/mL (≈ 3.13 to 6.25 µM)
4 | NC1(CN2CCN(C(=O)N[C@@H](C(=O)N[C@H]3Cc4ccc(F)c(C(=O)O)c4OB3O)c3c(F)cc(O)c(O)c3Cl)C(=O)C2=O)CC1 (single isomer, unassigned) [Example 134] | 0.5 to 1 µg/mL (≈ 0.767 to 1.53 µM) | 8 to 16 µg/mL (≈ 12.3 to 24.5 µM) | > 128 µg/mL | 2 to 4 µg/mL (≈ 3.07 to 6.14 µM) | 0.25 µg/mL (≈ 0.384 µM) | 32 to 64 µg/mL (≈ 49.1 to 98.2 µM)
5 | NCCN1CCN(C(=O)N[C@@H](C(=O)N[C@H]2Cc3ccc(F)c(C(=O)O)c3OB2O)c2cc(F)c(O)c(O)c2Cl)C(=O)C1=O (single isomer, unassigned) [Example 179] | 0.5 to 1 µg/mL (≈ 0.799 to 1.6 µM) | 2 to 4 µg/mL (≈ 3.2 to 6.39 µM) | > 128 µg/mL | 0.5 to 1 µg/mL (≈ 0.799 to 1.6 µM) | 0.25 µg/mL (≈ 0.4 µM) | 2 to 4 µg/mL (≈ 3.2 to 6.39 µM)
6 | NC1(CN2CCN(C(=O)N[C@@H](C(=O)N[C@H]3Cc4ccc(F)c(C(=O)O)c4OB3O)c3cc(F)c(O)c(O)c3Cl)C(=O)C2=O)CC1 (single isomer, unassigned) [Example 133] | 0.25 µg/mL (≈ 0.384 µM) | 2 to 4 µg/mL (≈ 3.07 to 6.14 µM) | > 128 µg/mL | 0.5 to 1 µg/mL (≈ 0.767 to 1.53 µM) | 0.25 µg/mL (≈ 0.384 µM) | 2 to 4 µg/mL (≈ 3.07 to 6.14 µM)
7 | NS(=O)(=O)Nc1cccc(C(NC(=O)N2CCN(Cc3c(F)cc(O)c(O)c3Cl)C(=O)C2=O)C(=O)N[C@H]2Cc3cccc(C(=O)O)c3OB2O)c1 (stereo partly drawn) [Example 131, (3R)-3-(2-(4-(2-chloro-6-fluoro-3,4-dihydroxybenzyl)-2,3-dioxopiperazine-1-carboxamido)-2-(3-(sulfamoylamino)phenyl)acetamido)-2-hydroxy-3,4-dihydro-2H-benzo[e][1,2]oxaborinine-8-carboxylic acid] | 0.5 to 1 µg/mL (≈ 0.668 to 1.34 µM) | > 128 µg/mL | > 128 µg/mL | 8 to 16 µg/mL (≈ 10.7 to 21.4 µM) | 0.25 µg/mL (≈ 0.334 µM) | 8 to 16 µg/mL (≈ 10.7 to 21.4 µM)
8 | CCN1CCN(C(=O)N[C@H](C(=O)N[C@H]2Cc3ccc(F)c(C(=O)O)c3OB2O)c2c(F)cc(O)c(O)c2Cl)C(=O)C1=O (single isomer, unassigned) [Example 125] | > 128 µg/mL | > 128 µg/mL | > 128 µg/mL | > 128 µg/mL | > 128 µg/mL | > 128 µg/mL
